Laboratory results taken from PMC4392179 (Nature medicine, 2015).
pIC50: −log10 of the molar value. Values belong to the molecule of their own block, whether it stands above or below them.

Key:
[1] = molecular target: T1, AIM2 inflammasome (Mus musculus, UniProt Q91VJ1); assay: AIM2 inflammasome activation: BMDM stimulated with LPS and transfected Poly; assay type: cell-based
T1 sequence (Q91VJ1 1-354): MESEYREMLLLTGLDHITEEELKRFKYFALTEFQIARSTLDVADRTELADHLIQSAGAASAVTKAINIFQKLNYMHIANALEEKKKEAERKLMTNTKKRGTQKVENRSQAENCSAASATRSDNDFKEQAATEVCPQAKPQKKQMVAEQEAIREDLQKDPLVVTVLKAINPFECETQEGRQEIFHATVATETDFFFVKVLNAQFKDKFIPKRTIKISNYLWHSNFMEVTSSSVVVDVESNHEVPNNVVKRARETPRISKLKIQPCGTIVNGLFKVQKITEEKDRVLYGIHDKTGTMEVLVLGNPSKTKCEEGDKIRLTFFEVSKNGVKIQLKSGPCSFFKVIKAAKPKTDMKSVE

[2] = Aqueous solubility; assay type: physicochemical; settings: sodium salt
[3] = tested on: NLRP1; assay: Nlrp1a Q593P activating mutation mice; assay type: in vivo; settings: NLRP1 mutant mice, 20 mg/kg i.p. every second day for 9 days; P = 0.7
[4] = molecular target: human ether-a-go-go (hERG) potassium channel (Homo sapiens, UniProt Q12809); assay: cell-based
human ether-a-go-go (hERG) potassium channel, sequence (Q12809 whole entry): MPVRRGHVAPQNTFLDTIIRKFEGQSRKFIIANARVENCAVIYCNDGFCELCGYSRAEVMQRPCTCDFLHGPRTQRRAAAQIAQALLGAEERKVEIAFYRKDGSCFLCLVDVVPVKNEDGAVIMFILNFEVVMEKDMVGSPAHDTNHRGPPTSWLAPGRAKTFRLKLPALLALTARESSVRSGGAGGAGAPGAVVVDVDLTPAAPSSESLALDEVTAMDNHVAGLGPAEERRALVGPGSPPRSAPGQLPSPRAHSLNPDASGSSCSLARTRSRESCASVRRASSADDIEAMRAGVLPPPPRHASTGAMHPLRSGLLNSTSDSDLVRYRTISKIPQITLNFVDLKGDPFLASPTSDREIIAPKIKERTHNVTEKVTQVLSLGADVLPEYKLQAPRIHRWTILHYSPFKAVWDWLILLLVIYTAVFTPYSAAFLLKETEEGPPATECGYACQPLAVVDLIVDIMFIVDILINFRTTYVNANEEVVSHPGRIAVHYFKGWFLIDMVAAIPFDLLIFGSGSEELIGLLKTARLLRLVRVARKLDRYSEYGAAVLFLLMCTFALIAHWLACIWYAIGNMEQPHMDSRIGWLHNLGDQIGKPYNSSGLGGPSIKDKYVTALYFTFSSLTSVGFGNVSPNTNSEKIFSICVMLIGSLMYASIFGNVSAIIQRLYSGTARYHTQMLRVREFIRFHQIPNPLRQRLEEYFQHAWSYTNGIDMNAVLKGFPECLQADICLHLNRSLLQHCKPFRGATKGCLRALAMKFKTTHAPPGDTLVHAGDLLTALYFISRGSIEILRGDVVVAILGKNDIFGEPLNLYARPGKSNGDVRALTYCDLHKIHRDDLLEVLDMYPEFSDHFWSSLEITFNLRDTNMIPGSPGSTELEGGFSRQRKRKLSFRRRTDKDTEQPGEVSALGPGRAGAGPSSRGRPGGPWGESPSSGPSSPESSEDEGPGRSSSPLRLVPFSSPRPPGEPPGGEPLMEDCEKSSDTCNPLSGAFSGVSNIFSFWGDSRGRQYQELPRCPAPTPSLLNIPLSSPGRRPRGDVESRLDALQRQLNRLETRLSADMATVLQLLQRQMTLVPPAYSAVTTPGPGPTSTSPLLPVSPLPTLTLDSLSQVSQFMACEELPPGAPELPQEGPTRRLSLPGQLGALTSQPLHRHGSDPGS

[5] = tested on: Ca2+ flux; assay: ATP induced Ca2+ flux in BMDM; settings: WT or Ice−/− BMDM
[6] = tested on: K+ efflux; assay: Intracellular K+ by ICP-OES in BMDM; assay type: cell-based, mouse; settings: LPS primed BMDM, MCC950 10–300 nM
[7] = molecular target: NLRC4 (Mus musculus, UniProt Q3UP24); assay: NLRC4 inflammasome activation: BMDM stimulated with LPS and S. typhimurium; assay type: cell-based; settings: for NLRC4-stimulated IL-1β secretion / NLRC4-stimulated TNF-α secretion / expression of pro-IL-1β (and pro-caspase-1) in cell lysates: LPS and S. typhimurium; for NLRC4-stimulated IL-1β secretion / NLRC4-stimulated TNF-α secretion: MCC950 up to 10 µM, parthenolide 10 µM
NLRC4, sequence (Q3UP24 whole entry): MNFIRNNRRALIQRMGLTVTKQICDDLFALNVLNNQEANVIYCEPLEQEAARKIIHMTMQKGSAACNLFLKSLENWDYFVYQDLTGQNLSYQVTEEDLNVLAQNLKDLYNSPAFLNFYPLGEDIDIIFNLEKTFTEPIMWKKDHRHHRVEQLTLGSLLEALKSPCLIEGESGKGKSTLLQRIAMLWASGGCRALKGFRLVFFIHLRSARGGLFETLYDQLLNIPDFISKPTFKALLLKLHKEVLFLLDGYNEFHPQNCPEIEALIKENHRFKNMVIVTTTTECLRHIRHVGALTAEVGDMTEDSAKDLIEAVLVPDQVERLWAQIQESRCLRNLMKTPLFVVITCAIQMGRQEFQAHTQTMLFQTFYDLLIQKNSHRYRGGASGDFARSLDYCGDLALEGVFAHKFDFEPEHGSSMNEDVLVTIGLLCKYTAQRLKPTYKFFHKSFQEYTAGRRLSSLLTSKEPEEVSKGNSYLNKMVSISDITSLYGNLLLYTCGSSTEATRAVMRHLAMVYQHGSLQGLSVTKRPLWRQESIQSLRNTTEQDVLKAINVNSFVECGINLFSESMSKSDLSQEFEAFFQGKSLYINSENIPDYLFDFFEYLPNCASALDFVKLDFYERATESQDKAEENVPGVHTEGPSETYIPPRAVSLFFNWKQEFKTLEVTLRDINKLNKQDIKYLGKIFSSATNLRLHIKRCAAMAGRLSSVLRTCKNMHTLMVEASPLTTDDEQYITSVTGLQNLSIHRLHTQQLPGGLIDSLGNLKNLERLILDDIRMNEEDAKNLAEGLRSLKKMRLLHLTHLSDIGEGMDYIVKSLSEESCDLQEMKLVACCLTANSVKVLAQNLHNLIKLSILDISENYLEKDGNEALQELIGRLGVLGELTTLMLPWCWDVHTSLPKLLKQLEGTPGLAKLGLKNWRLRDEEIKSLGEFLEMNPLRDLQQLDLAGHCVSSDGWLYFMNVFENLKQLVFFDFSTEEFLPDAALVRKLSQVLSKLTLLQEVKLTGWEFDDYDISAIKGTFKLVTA

[8] = molecular target: CYP 3A4 (Homo sapiens, UniProt P08684); assay: CYP inhibition in human liver microsomes, substrate cocktail; settings: 10 µM
CYP 3A4, sequence (P08684 whole entry): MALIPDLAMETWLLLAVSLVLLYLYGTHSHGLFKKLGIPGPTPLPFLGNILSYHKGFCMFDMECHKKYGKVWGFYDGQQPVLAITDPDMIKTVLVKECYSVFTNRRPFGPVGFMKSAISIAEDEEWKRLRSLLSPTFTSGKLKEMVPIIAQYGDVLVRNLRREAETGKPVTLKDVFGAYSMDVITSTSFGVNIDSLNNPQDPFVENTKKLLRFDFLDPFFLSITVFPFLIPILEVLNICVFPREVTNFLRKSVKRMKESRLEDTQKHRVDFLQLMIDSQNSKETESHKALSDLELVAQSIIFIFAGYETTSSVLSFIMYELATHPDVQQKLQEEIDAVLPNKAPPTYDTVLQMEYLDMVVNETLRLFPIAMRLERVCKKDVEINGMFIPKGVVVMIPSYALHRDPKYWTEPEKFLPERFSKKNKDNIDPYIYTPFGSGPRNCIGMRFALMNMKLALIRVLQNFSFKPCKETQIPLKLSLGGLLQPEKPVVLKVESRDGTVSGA

[9] = Stability with mouse liver microsomes
[10] = tested on: NLRP1; assay type: cell-based
[11] = molecular target: CYP 2C19 (Homo sapiens, UniProt P33261); assay: CYP inhibition in human liver microsomes, substrate cocktail; settings: 10 µM
CYP 2C19, sequence (P33261 whole entry): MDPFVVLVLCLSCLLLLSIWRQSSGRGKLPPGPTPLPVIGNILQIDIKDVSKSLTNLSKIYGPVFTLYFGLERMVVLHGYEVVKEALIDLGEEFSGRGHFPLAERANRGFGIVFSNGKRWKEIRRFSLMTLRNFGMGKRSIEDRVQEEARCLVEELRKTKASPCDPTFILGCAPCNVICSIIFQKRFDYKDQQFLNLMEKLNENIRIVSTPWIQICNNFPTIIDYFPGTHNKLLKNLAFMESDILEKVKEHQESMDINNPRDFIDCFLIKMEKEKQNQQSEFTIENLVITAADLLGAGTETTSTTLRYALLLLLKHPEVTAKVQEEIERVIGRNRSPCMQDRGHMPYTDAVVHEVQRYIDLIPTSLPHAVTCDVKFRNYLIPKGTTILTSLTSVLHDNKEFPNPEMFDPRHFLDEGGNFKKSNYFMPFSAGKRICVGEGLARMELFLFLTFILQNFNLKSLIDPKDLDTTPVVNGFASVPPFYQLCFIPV

[12] = molecular target: T2, CYP 1A2 (Homo sapiens, UniProt P05177); assay: as above; settings: 10 µM
T2 sequence (P05177 1-516): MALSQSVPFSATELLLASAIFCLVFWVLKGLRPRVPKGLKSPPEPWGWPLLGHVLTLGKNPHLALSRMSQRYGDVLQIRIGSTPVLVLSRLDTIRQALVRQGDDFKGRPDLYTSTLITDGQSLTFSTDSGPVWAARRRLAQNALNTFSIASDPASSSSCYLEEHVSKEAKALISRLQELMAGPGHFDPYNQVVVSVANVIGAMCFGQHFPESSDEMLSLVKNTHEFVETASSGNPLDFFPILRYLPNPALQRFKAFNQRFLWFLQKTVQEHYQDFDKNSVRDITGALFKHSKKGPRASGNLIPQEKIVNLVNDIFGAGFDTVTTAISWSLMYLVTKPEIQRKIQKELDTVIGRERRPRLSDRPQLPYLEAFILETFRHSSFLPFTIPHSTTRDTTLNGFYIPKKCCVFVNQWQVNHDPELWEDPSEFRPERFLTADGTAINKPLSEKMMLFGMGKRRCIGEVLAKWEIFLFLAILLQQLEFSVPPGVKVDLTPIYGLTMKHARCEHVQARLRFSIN

[13] = molecular target: CYP 2C9 (Homo sapiens, UniProt P11712); assay: as above; settings: 10 µM
CYP 2C9, sequence (P11712 whole entry): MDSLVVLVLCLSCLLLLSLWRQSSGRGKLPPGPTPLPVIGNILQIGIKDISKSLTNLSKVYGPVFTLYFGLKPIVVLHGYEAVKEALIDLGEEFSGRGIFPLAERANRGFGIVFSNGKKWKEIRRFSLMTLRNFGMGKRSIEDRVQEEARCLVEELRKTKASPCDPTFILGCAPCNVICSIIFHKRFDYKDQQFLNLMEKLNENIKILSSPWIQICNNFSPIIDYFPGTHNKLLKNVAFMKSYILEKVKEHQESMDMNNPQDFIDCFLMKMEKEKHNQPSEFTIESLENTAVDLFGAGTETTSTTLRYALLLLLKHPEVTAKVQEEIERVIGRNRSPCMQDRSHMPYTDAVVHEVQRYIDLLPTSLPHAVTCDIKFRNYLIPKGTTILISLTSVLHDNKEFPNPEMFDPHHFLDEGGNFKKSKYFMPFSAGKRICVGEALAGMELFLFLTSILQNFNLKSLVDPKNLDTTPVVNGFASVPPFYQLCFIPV

[14] = molecular target: CYP 2D6 (Homo sapiens, UniProt P10635); assay: as above; settings: 10 µM
CYP 2D6, sequence (P10635 whole entry): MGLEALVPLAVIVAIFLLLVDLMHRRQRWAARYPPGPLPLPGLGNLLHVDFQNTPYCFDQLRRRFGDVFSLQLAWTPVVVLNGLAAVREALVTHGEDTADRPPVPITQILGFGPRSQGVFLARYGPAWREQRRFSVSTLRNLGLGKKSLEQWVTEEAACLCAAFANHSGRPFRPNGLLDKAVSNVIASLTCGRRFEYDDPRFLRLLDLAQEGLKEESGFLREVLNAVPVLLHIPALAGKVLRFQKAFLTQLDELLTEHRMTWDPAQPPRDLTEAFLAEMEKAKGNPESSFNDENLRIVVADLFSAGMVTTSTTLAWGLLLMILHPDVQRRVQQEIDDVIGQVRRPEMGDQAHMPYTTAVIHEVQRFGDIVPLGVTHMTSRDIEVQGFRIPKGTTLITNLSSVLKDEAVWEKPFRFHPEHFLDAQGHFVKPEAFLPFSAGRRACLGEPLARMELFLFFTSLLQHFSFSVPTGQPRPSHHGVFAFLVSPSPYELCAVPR

[15] = tested on: EAE; assay: Experimental autoimmune encephalomyelitis; assay type: in vivo, C57BL/6 mice
[16] = Stability with human liver microsomes
[17] = tested on: TLR signalling; assay: Priming / TLR signalling: BMDM pre-treated and stimulated with LPS or Poly; assay type: cell-based, mouse; settings: for LPS-induced (TLR4) TNF-α secretion / Poly(A:U)-induced (TLR3) TNF-α secretion: BMDM, ELISA
[18] = LPS and Poly(dA:dT), Bayer compound 40 µM

IL-1β secretion [1, 18]: inhibited
Poly(dA:dT) stimulated caspase-1 activation ([1]; Western blot): inhibited
SMILES: O=C(O)c1ccc(OCCCc2ccc(OCCCC3CCCCC3)cc2)c(C(=O)N2CCC(C(=O)O)CC2)c1 [Bayer compound, 1-(5-carboxy-2{3-[4-(3-cyclohexylpropoxy)phenyl]propoxy}benzoyl)piperidine-4-carboxylic acid, reference compound]

SMILES: CC(C)(O)c1coc(S(=O)(=O)[N-]C(=O)Nc2c3c(cc4c2CCC4)CCC3)c1.[Na+] [MCC950 sodium salt]
solubility in aqueous solutions [2]: highly soluble

SMILES: CC(C)(O)c1coc(S(=O)(=O)NC(=O)Nc2c3c(cc4c2CCC4)CCC3)c1 [MCC950, 1-(1,2,3,5,6,7-hexahydro-s-indacen-4-yl)-3-[4-(1-hydroxy-1-methyl-ethyl)-furan-2-sulfonyl]urea]
serum concentrations of IL-18 [3]: did not significantly alter
pIC50 [4]: < 4.52
ATP induced increase in intracellular Ca2+ [5]: did not substantially affect
K+ efflux triggered by nigericin, ATP and SiO2 [6]: did not prevent
NLRC4-stimulated IL-1β secretion [7]: not inhibited
NLRC4-stimulated TNF-α secretion [7]: not inhibited
expression of pro-IL-1β (and pro-caspase-1) in cell lysates ([7]; Western blot): not substantially affected
caspase-1 activation / IL-1β processing in response to S. typhimurium ([7]; Western blot): did not inhibit
inhibition of CYP 3A4 [8]: less than 15%
compound remaining after 60 min [9]: more than 70%
ASC speck formation [10]: not decreased
inhibition of CYP 2C19 [11]: less than 15%
inhibition of CYP 1A2 [12]: less than 15%
IL-1β secretion [1, 18]: did not attenuate
TNF-α secretion [1, 18]: did not attenuate
inhibition of CYP 2C9 [13]: less than 15%
inhibition of CYP 2D6 [14]: less than 15%
EAE onset and severity (clinical scores) ([15]; 10 mg/kg i.p. day 0, 1, 2 and every 2 days thereafter): delayed the onset and reduced the severity
frequencies of IL-17 and IFN-γ producing CD3+ T cells in brain mononuclear cells ([15]; day 22, vs PBS-treated mice): modestly reduced
compound remaining after 60 min [16]: more than 70%
LPS stimulated induction of NLRP3 and pro-IL-1β ([17]; BMDM pre-treated, LPS 4 h, Western blot): not affected
LPS-induced (TLR4) TNF-α secretion [17]: did not affect
Poly(A:U)-induced (TLR3) TNF-α secretion [17]: did not affect

NLRC4-stimulated IL-1β secretion [7]: attenuated
NLRC4-stimulated TNF-α secretion [7]: attenuated
expression of pro-IL-1β (and pro-caspase-1) in cell lysates ([7]; Western blot): attenuated
SMILES: C=C1C(=O)O[C@H]2[C@H]1CC/C(C)=C/CC[C@@]1(C)O[C@@H]21 [parthenolide, reference compound]
LPS-induced (TLR4) TNF-α secretion [17]: abrogated
Poly(A:U)-induced (TLR3) TNF-α secretion [17]: abrogated
